# Laboratory results as given in patent US20250353841A1 (BIOGEN MA INC., priority 2022, published 2025).
# pIC50: −log10 of the molar value.
# Test system: mutant Huntington (HTT) protein
# Test: HTT Mutant HTRF iPSC assay (mHTT protein lowering)
# Assay type: cell-based
# Conditions: human iPSC derived from a HTT patient with a poly-Q49 mutation
row,Structure (SMILES),pIC50
1,"Cn1cc2cc(-c3cc(F)c4nc(C5CNC5)cn4c3)cc(F)c2n1 [Compound 23, 5-(2-(azetidin-3-yl)-8-fluoroimidazo[1,2-a]pyridin-6-yl)-7-fluoro-2-methyl-2H-indazole]",5.05 to 6.00
2,"CNCCc1cn2cc(-c3cc(F)c4nc(C)cn4c3)cc(F)c2n1 [Compound 24, 2-(8,8′-difluoro-2′-methyl-[6,6′-biimidazo[1,2-a]pyridin]-2-yl)-N-methylethan-1-amine]",5.05 to 6.00
3,"CCN1CCC(c2cn3cc(-c4cc(C)c5nn(C)cc5c4)cc(F)c3n2)CC1 [Compound 25, 5-(2-(1-ethylpiperidin-4-yl)-8-fluoroimidazo[1,2-a]pyridin-6-yl)-2,7-dimethyl-2H-indazole]",6.00 to 7.00
4,"CN1CCC(c2cn3cc(-c4cc(F)c5nn(C)cc5c4)cc(F)c3n2)CC1 [Compound 26, 7-fluoro-5-(8-fluoro-2-(1-methylpiperidin-4-yl)imidazo[1,2-a]pyridin-6-yl)-2-methyl-2H-indazole]",6.00 to 7.00
5,"CCN1CCC(c2cn3cc(-c4cc(C)c5nc(C)cn5c4)cc(F)c3n2)CC1 [Compound 27, 2-(1-ethylpiperidin-4-yl)-8-fluoro-2′,8′-dimethyl-6,6′-biimidazo[1,2-a]pyridine]",6.00 to 7.00
6,"CN1CCC(c2cn3cc(-c4ccc5nn(C)cc5c4)cc(F)c3n2)CC1 [Compound 28, 5-(8-fluoro-2-(1-methylpiperidin-4-yl)imidazo[1,2-a]pyridin-6-yl)-2-methyl-2H-indazole]",5.05 to 6.00
7,"Cn1nnc2ccc(-c3cc(F)c4nc(C5CCNCC5)cn4c3)cc21 [Compound 29, 6-(8-fluoro-2-(piperidin-4-yl)imidazo[1,2-a]pyridin-6-yl)-1-methyl-1H-benzo[d][1,2,3]triazole]",6.00 to 7.00
8,"CCc1nc(C)cn2cc(-c3cc(F)c4nc(C5CCNCC5)cn4c3)cc12 [Compound 30, 6-(1-ethyl-3-methylpyrrolo[1,2-a]pyrazin-7-yl)-8-fluoro-2-(piperidin-4-yl)imidazo[1,2-a]pyridine]",> 7.00
9,"Cc1cn2cc(-c3cc(F)c4nc(C5CCNCC5)cn4c3)cc2c(C)n1 [Compound 31, 6-(1,3-dimethylpyrrolo[1,2-a]pyrazin-7-yl)-8-fluoro-2-(piperidin-4-yl)imidazo[1,2-a]pyridine]",> 7.00
10,"Cc1cn2cc(-c3cc(F)c4nc(C5CCNCC5)cn4c3)cc(Cl)c2n1 [Compound 32, 8-chloro-8′-fluoro-2-methyl-2′-(piperidin-4-yl)-6,6′-biimidazo[1,2-a]pyridine]",6.00 to 7.00
11,"Fc1cc(-c2ccc3nscc3c2)cn2cc(C3CCNCC3)nc12 [Compound 33, 5-(8-fluoro-2-(piperidin-4-yl)imidazo[1,2-a]pyridin-6-yl)benzo[c]isothiazole]",5.05 to 6.00
12,"Fc1cc(-c2ccn3nccc3c2)cn2cc(C3CCNCC3)nc12 [Compound 34, 8-fluoro-2-(piperidin-4-yl)-6-(pyrazolo[1,5-a]pyridin-5-yl)imidazo[1,2-a]pyridine]",5.05 to 6.00
13,"Cc1csc2cc(-c3cc(F)c4nc(C5CCNCC5)cn4c3)cnc12 [Compound 35, 6-(8-fluoro-2-(piperidin-4-yl)imidazo[1,2-a]pyridin-6-yl)-3-methylthieno[3,2-b]pyridine]",5.05 to 6.00
14,"Fc1cc(-c2ccc3nn(C(F)F)cc3c2)cn2cc(C3CCNCC3)nc12 [Compound 36, 2-(difluoromethyl)-5-(8-fluoro-2-(piperidin-4-yl)imidazo[1,2-a]pyridin-6-yl)-2H-indazole]",5.05 to 6.00
15,"Cc1nc2ccc(-c3cc(F)c4nc(C5CCNCC5)cn4c3)cn2n1 [Compound 37, 6-(8-fluoro-2-(piperidin-4-yl)imidazo[1,2-a]pyridin-6-yl)-2-methyl-[1,2,4]triazolo[1,5-a]pyridine]",5.05 to 6.00
16,"Cc1cc(-c2cc(F)c3nc(C4CCNCC4)cn3c2)ccc1C#N [Compound 38, 4-(8-fluoro-2-(piperidin-4-yl)imidazo[1,2-a]pyridin-6-yl)-2-methylbenzonitrile]",5.05 to 6.00
17,"Fc1cc(-c2cc3ccc(Cl)cc3o2)cn2cc(C3CCNCC3)nc12 [Compound 39, 6-(6-chlorobenzofuran-2-yl)-8-fluoro-2-(piperidin-4-yl)imidazo[1,2-a]pyridine]",5.05 to 6.00
18,"CCc1c[nH]c2ncc(-c3cc(F)c4nc(C5CCNCC5)cn4c3)cc12 [Compound 40, 6-(3-ethyl-1H-pyrrolo[2,3-b]pyridin-5-yl)-8-fluoro-2-(piperidin-4-yl)imidazo[1,2-a]pyridine]",5.05 to 6.00
19,"CCOc1nccc2oc(-c3cc(F)c4nc(C5CCNCC5)cn4c3)cc12 [Compound 41, 4-ethoxy-2-(8-fluoro-2-(piperidin-4-yl)imidazo[1,2-a]pyridin-6-yl)furo[3,2-c]pyridine]",5.05 to 6.00
20,"Cc1cn2cc(-c3cc(F)c4nc(C5CCNCC5)cn4c3)cc(C#N)c2n1 [Compound 42, 8′-fluoro-2-methyl-2′-(piperidin-4-yl)-[6,6′-biimidazo[1,2-a]pyridine]-8-carbonitrile]",5.05 to 6.00
21,"Fc1cccc2sc(-c3cc(F)c4nc(C5CCNCC5)cn4c3)cc12 [Compound 43, 8-fluoro-6-(4-fluorobenzo[b]thiophen-2-yl)-2-(piperidin-4-yl)imidazo[1,2-a]pyridine]",5.05 to 6.00

row,Structure (SMILES),pIC50
1,"Fc1cc(-c2ccc3ncsc3c2)cn2cc(C3CCNCC3)nc12 [Compound 44, 6-(8-fluoro-2-(piperidin-4-yl)imidazo[1,2-a]pyridin-6-yl)benzo[d]thiazole]",5.05 to 6.00
2,"COCCCN1CCC(c2cn3cc(-c4cc(C)c5nc(C)cn5n4)cc(F)c3n2)CC1 [Compound 45, 6-(8-fluoro-2-(1-(3-methoxypropyl)piperidin-4-yl)imidazo[1,2-a]pyridin-6-yl)-2,8-dimethylimidazo[1,2-b]pyridazine]",> 7.00
3,"COCCN1CCC(c2cn3cc(-c4cc(C)c5nc(C)cn5n4)cc(F)c3n2)CC1 [Compound 46, 6-[8-fluoro-2-[1-(2-methoxyethyl)-4-piperidyl]imidazo[1,2-a]pyridin-6-yl]-2,8-dimethyl-imidazo[1,2-b]pyridazine]",> 7.00
4,"Cc1cn2nc(-c3cc(F)c4nc(C5CCN(C(C)C)CC5)cn4c3)cc(C)c2n1 [Compound 47, 6-(8-fluoro-2-(1-isopropylpiperidin-4-yl)imidazo[1,2-a]pyridin-6-yl)-2,8-dimethylimidazo[1,2-b]pyridazine]",> 7.00
5,"Fc1cc(-c2cccc3nonc23)cn2cc(C3CCNCC3)nc12 [Compound 48, 4-(8-fluoro-2-(piperidin-4-yl)imidazo[1,2-a]pyridin-6-yl)benzo[c][1,2,5]oxadiazole]",5.05 to 6.00
6,"Cc1nc2cc(-c3cc(F)c4nc(C5CCNCC5)cn4c3)ccc2[nH]1 [Compound 50, 5-(8-fluoro-2-(piperidin-4-yl)imidazo[1,2-a]pyridin-6-yl)-2-methyl-1H-benzo[d]imidazole]",5.05 to 6.00
7,"Fc1cc(-c2ccc3nonc3c2)cn2cc(C3CCNCC3)nc12 [Compound 51, 5-(8-fluoro-2-(piperidin-4-yl)imidazo[1,2-a]pyridin-6-yl)benzo[c][1,2,5]oxadiazole]",5.05 to 6.00
8,"Fc1cc(-c2cc(F)c3nc(C4CCNCC4)cn3c2)cc2[nH]ncc12 [Compound 52, 4-fluoro-6-(8-fluoro-2-(piperidin-4-yl)imidazo[1,2-a]pyridin-6-yl)-1H-indazole]",5.05 to 6.00
9,"Cc1n[nH]c2ccc(-c3cc(F)c4nc(C5CCNCC5)cn4c3)cc12 [Compound 53, 5-(8-fluoro-2-(piperidin-4-yl)imidazo[1,2-a]pyridin-6-yl)-3-methyl-1H-indazole]",5.05 to 6.00
10,"Fc1cc(-c2ccc3nsnc3c2)cn2cc(C3CCNCC3)nc12 [Compound 54, 5-(8-fluoro-2-(piperidin-4-yl)imidazo[1,2-a]pyridin-6-yl)benzo[c][1,2,5]thiadi azole]",5.05 to 6.00
11,"CN1C(=O)Cc2ccc(-c3cc(F)c4nc(C5CCNCC5)cn4c3)cc21 [Compound 55, 6-(8-fluoro-2-(piperidin-4-yl)imidazo[1,2-a]pyridin-6-yl)-1-methylindolin-2-one]",5.05 to 6.00
12,"N#Cc1cccc2[nH]c(-c3cc(F)c4nc(C5CCNCC5)cn4c3)cc12 [Compound 56, 2-(8-fluoro-2-(piperidin-4-yl)imidazo[1,2-a]pyridin-6-yl)-1H-indole-4-carbonitrile]",5.05 to 6.00
13,"O=C1Cc2cc(-c3cc(F)c4nc(C5CCNCC5)cn4c3)cc(F)c2N1 [Compound 57, 7-fluoro-5-(8-fluoro-2-(piperidin-4-yl)imidazo[1,2-a]pyridin-6-yl)indolin-2-one]",5.05 to 6.00
14,"O=c1[nH]ncc2ccc(-c3cc(F)c4nc(C5CCNCC5)cn4c3)cc12 [Compound 58, 7-(8-fluoro-2-(piperidin-4-yl)imidazo[1,2-a]pyridin-6-yl)phthalazin-1(2H)-one]",5.05 to 6.00
15,"Fc1cc(-c2ccc3[nH]ncc3c2)cn2cc(C3CCNCC3)nc12 [Compound 59, 5-(8-fluoro-2-(piperidin-4-yl)imidazo[1,2-a]pyridin-6-yl)-1H-indazole]",5.05 to 6.00
16,"Cc1cn2nc(-c3cc(F)c4nc(C5CCNC(C)C5)cn4c3)cc(C)c2n1 (stereo not drawn) [Compound 60, 6-(8-fluoro-2-(2-methylpiperidin-4-yl)imidazo[1,2-a]pyridin-6-yl)-2,8-dimethylimidazo[1,2-b]pyridazine]",> 7.00
17,"Cc1cn2nc(-c3cc(F)c4nc(C5CCNC(C)C5)cn4c3)ccc2n1 (stereo not drawn) [Compound 61, 6-(8-fluoro-2-(2-methylpiperidin-4-yl)imidazo[1,2-a]pyridin-6-yl)-2-methylimidazo[1,2-b]pyridazine]",> 7.00
18,"Cc1cn2nc(-c3cc(F)c4nc(C5CCNC(C)(C)C5)cn4c3)ccc2n1 (stereo not drawn) [Compound 62, 6-(2-(2,2-dimethylpiperidin-4-yl)-8-fluoroimidazo[1,2-a]pyridin-6-yl)-2-methylimidazo[1,2-b]pyridazine]",> 7.00
19,"Cn1cc2cc(-c3cc(F)c4nc(C5CCNC(C)(C)C5)cn4c3)cc(F)c2n1 (stereo not drawn) [Compound 63, 5-(2-(2,2-dimethylpiperidin-4-yl)-8-fluoroimidazo[1,2-a]pyridin-6-yl)-7-fluoro-2-methyl-2H-indazole]",5.05 to 6.00
20,Cc1cn2nc(-c3cc(F)c4nc(C5CNC5)cn4c3)cc(C)c2n1 [Compound 64],5.05 to 6.00
21,"Cn1cc2cc(-c3cc(F)c4nc(C5CCNC5)cn4c3)ccc2n1 (stereo not drawn) [Compound 65, 5-(8-fluoro-2-(pyrrolidin-3-yl)imidazo[1,2-a]pyridin-6-yl)-2-methyl-2H-indazole]",5.05 to 6.00
